Data reported in patent US20260207633A1, “COMPOSITION COMPRISING POLAR LIPIDS AND METHOD OF MAKING SAME” (VAXA TECHNOLOGIES LTD, priority 2021, published 2026).

Columns and labels:
[1] = test system: participants with poor sleeping quality (PSQI 11-13); test: Sleep quality tracked monthly with the Pittsburgh Sleep Quality Index (PSQI), 6 groups of 3 participants; type: in vivo, human; conditions: for PSQI M3: global PSQI score at month 3; for PSQI M3 / PSQI M4: With CBD (daily dosage per group, the 2nd table r16-r22); for PSQI M4: global PSQI score at month 4; for ΔPSQI (%): improvement of PSQI from M0 to M4
Procedure: Some experiment showing the effect of the combination of CBD and four different omega-3 compounds (Fish Oil (Non-polar DHA+EPA), Fish oil (Non-polar EPA), Schizochytrium Oil (Non-Polar DHA), Nannochloropsis Oil (polar EPA)) were conducted. Daily dosage of omega 3 (DHA and/or EPA) was […].
Materials: CBD: Fish oil (non-polar DHA+EPA), Schizochytrium Oil (non-polar DHA), Nannochloropsis Oil (polar-EPA), Fish oil (non-polar EPA).
Experimental Design: Sleep quality was the measured in this study, as an efficacy indication. The experiment included 6 groups (3 participants per group) 8 women and 10 men, with similar Pittsburgh Sleep Quality Index (PSQI) rating (11-13), indicating poor sleeping quality. The average age for the participants was 37.2. All 18 participants completed sleep assessments at the onset of CBD treatment and at the monthly follow-ups.
All participants were given CBD and/or Omega 3 every evening, after dinner, per table 1 below. Sleep quality was tracked on a monthly basis, for a period of up to 4 months, using the PSQI. This Index is a self-report measure that assesses the quality of sleep during a 1-month period. […] The PSQI measures several different aspects of sleep, offering seven component scores and one composite score. The component scores consist of subjective sleep quality, sleep latency (i.e., how long it takes to fall asleep), sleep duration, habitual sleep efficiency (i.e., the percentage of time in bed that one is asleep), sleep disturbances, use of sleeping medication, and daytime dysfunction.
Each item is weighted on a 0-3 interval scale. The global PSQI score was calculated by totaling the seven component scores, providing an overall score ranging from 0 to 21, where lower scores denote a healthier sleep quality. A higher number indicates more sleep-related concerns. A score of 5 or greater indicates a “poor sleeper”.

[2] = test system: individuals with insomnia; conditions: cited from earlier work

Compound	effect on PSQI score / sleep quality, in words ([1]; comparison between groups)	PSQI M3 [1]	PSQI M4 [1]	ΔPSQI (%) [1] [%]	Sedation ([1]; sedation effect Y/N during CBD treatment, listed as High-dose CBD)	improvement of PSQI score, months 3-4 ([1]; months with CBD)	frequency of arousals during the night ([2]; high-dose (160 mg/day) CBD)	total sleep time ([2]; high-dose (160 mg/day) CBD)	wakefulness ([2]; low-dose CBD)
C=C(C)[C@@H]1CCC(C)=C[C@H]1c1c(O)cc(CCCCC)cc1O [Group A, Cannabidiol]	more efficient that low-dose CBD in improving PSQI score	6.7	4.6	62	had a sedation effect				
C=C(C)[C@@H]1CCC(C)=C[C@H]1c1c(O)cc(CCCCC)cc1O [Group B, Cannabidiol]		11.3	9.3	24		~ 18%			
C=C(C)[C@@H]1CCC(C)=C[C@H]1c1c(O)cc(CCCCC)cc1O [CBD, Cannabidiol]							decreased the frequency of arousals during the night	increased total sleep time	increased wakefulness
